In assay [1] the test system is IL-23-stimulated phosphorylated STAT3 in peripheral blood mononuclear cells (PBMCs). The assay can be described thus: PBMC pSTAT3 Assay. It is filed as cell-based. The note with it: PBMCs from healthy donors; 30 min preincubation with peptide; IL-23 5 ng/mL for 30 min; phospho-STAT3 by MSD. The gist of the method:
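Phospho-STAT3 quantified by Meso Scale assay in lysates of PBMCs exposed to IL-23 (5 ng/mL, 30 min, 37 °C) after 30 min peptide pretreatment. Cells were cryopreserved donor PBMCs activated 4 days with anti-CD3 plus IL-1β (100 ng/mL) and starved ~4 h; IC50 reported.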

The next assay deals with T1, IL-23R (Homo sapiens, UniProt Q5VWK5).
T1 construct: HEK293 cells containing IL-23R, IL-12Rβ1 and a firefly luciferase reporter gene driven by a STAT-inducible promoter (Promega); host or cells: HEK293
T1 sequence (Q5VWK5 24-629): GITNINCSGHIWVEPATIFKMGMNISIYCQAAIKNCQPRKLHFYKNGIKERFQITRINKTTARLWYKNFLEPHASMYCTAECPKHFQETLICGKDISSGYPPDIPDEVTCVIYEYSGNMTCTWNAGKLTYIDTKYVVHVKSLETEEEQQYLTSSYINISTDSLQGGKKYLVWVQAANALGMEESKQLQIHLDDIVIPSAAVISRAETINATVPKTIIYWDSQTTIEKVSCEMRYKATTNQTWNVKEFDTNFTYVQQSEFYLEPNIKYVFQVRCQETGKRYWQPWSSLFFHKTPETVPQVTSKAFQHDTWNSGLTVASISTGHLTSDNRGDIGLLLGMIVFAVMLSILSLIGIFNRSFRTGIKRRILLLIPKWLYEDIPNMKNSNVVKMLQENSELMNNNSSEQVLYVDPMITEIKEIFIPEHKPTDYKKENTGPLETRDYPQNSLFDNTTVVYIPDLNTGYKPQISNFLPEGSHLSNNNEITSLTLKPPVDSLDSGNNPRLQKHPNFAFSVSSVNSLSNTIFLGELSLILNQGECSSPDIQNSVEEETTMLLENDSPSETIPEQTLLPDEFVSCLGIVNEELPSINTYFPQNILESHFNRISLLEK
In words: IL23R Reporter Assay. It is filed as cell-based. The note with it: HEK293 cells containing IL-23R, IL-12Rβ1 and STAT-inducible firefly luciferase reporter; 10 ng/mL IL-23 (EC90); 5 h. The gist of the method: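 IC50 values were fitted with a 4-parameter Hill equation to luciferase signal, scaled between IL-23-only wells (0% inhibition) and 30 μM reference inhibitor (100%). The readout was a STAT-inducible reporter in IL-23R/IL-12Rβ1 HEK293 cells, stimulated with added 10 ng/mL IL-23 (EC90) for 5 h at 37° C and developed with BioGlo.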
In general terms: A reporter such as luciferase makes a cellular process visible.

*1 amine or outer side, *2 acyl side, *3 side chain or, on linkers, in order; H or OH if unused. Where a SMILES comes first, the peptide text is derived from it. Bridges are numbered along the chain shown (N, C = ends). Side-chain parts run from the residue outwards. [ ]: non-standard residue; d: D form. The star is where a group is joined. ξ: configuration not given here. X11 = CN(CC(N)=O)C(=O)[C@H](Cc1cccnc1)NC(O)[C@H](CC(N)=O)N*; X12 = O=C(O)CCCCCCCCCCCCCCCCC(=O)C[C@@H](CCC(=O)*)C(=O)O; Me3N+(CH2)2O(CH2)2O(CH2)2CO = C[N+](C)(C)CCOCCOCCC(=O)*; PEG12 = NCCOCCOCCOCCOCCOCCOCCOCCOCCOCCOCCOCCOCCC(=O)O; Trp(7-Me) = Cc1cccc2c(C[C@H](N)C(=O)O)c[nH]c12; C18 diacid = O=C(O)CCCCCCCCCCCCCCCCC(=O)*; γGlu = O=C(O)[C@H](CCC(=O)[*:2])N[*:1]; 2Nal = N[C@@H](Cc1ccc2ccccc2c1)C(=O)O; AEF = NCCOc1ccc(C[C@H](N)C(=O)O)cc1; ξγGlu = O=C(O)C(CCC(=O)[*:2])N[*:1]; X2 = C[N+](C)(C)C[C@@H](CC(=O)O)N*; 3Pal = N[C@@H](Cc1cccnc1)C(=O)O; Lys(Me) = CNCCCC[C@H](N)C(=O)O; NMeK = CN[C@@H](CCCCN)C(=O)O; Pen = CC(C)(S)[C@H](N)C(=O)O; Suc = O=C(CCC(=O)[*:2])[*:1]; Thp = NC1(C(=O)O)CCOCC1; X1 = C[N+](C)(C)CCCCC*; AEEA = NCCOCCOCC(=O)O; Sar = CNCC(=O)O

A word on the IC50: it is the concentration that gives 50% inhibition. A high value points to a need for much substance. Turning to `CC(=O)NCCCC[C@@H]1NC(=O)[C@H](Cc2c[nH]c3c(C)cccc23)NC(=O)[C@H]([C@@H](C)O)NC(=O)[C@H](CC(N)=O)NC(=O)[C@@H](NC(=O)[C@@H](CCCCNC(=O)COCCOCCNC(=O)COCCOCCNC(=O)CCC(NC(=O)CCCCCCCCCCCCCCCCC(=O)O)C(=O)O)NC(C)=O)C(C)(C)SSC(C)(C)[C@@H](C(=O)N[C@@H](Cc2ccc(OCCN)cc2)C(=O)N[C@@H](Cc2ccc3ccccc3c2)C(=O)NC2(C(=O)N[C@@H](CCC(=O)O)C(=O)N[C@@H](CC(N)=O)C(=O)N[C@@H](Cc3cccnc3)C(=O)N(C)[C@@H](CCCCNC(=O)CCC(=O)N[C@H](CC(=O)O)C[N+](C)(C)C)C(N)=O)CCOCC2)NC1=O` (stereo partly shown) [compound 42, MeCO-k(PEG2PEG2gEC18OH)-Pen(3)-N-T-7MeW-K(Ac)-Pen(3)-AEF-2Nal-THP-E-N-3Pya-NMeK(d)-CONH2] (Ac-[dK]([AEEA-AEEA-ξγGlu-C18 diacid])[Pen]NT[Trp(7-Me)]K(Ac)[Pen][AEF][2Nal][Thp]EN[3Pal][NMeK]([Suc-X2])-NH2; disulfide 2-7), the IC50 in assay [1] is less than 0.5 nM; against IL-23R, less than 50 nM.
`C=C(O)[C@H](CCC(=O)NCCOCCOCC(=O)NCCOCCOCC(=O)NCCCC[C@H](NC(=O)CN(C)C(=O)[C@H](Cc1cccnc1)NC(=O)[C@H](CC(N)=O)NC(=O)[C@H](CCCCNC(=O)CCC(=O)N[C@H](CC(=O)O)C[N+](C)(C)C)NC(=O)C1(NC(=O)[C@H](Cc2ccc3ccccc3c2)NC(=O)[C@H](Cc2ccc(OCCN)cc2)NC(=O)[C@H]2NC(=O)[C@H](CCCCNC(C)=O)NC(=O)[C@H](Cc3c[nH]c4c(C)cccc34)NC(=O)[C@H]([C@@H](C)O)NC(=O)[C@H](CC(N)=O)NC(=O)[C@@H](NC(C)=O)C(C)(C)SSC2(C)C)CCOCC1)C(N)=O)NC(=O)CCCCCCCCCCCCCCCCC(=O)O` [compound 50, MeCO-Pen(3)-N-T-7MeW-K(Ac)-Pen(3)-AEF-2Nal-THP-K(d)-N-3Pya-Sar-K(PEG2PEG2gEC18OH)-CONH2]: the half-inhibitory concentration (IC50) in assay [1] is less than 0.5 nM; against IL-23R it was 50 to 500 nM.
On to `CC(=O)NCCCC[C@@H]1NC(=O)[C@H](Cc2c[nH]c3c(C)cccc23)NC(=O)[C@H]([C@@H](C)O)NC(=O)[C@H](CC(N)=O)NC(=O)[C@@H](NC(=O)[C@@H](CCCNC(=N)N)NC(=O)COCCOCCNC(=O)COCCOCCNC(=O)CC[C@H](NC(=O)CCCCCCCCCCCCCCCCC(=O)O)C(=O)O)C(C)(C)SSC(C)(C)[C@@H](C(=O)N[C@@H](Cc2ccc(OCCN)cc2)C(=O)N[C@@H](Cc2ccc3ccccc3c2)C(=O)NC2(C(=O)N[C@@H](CCCCNC(=O)CCC(=O)N[C@H](CC(=O)O)C[N+](C)(C)C)C(=O)N[C@@H](CC(N)=O)C(O)N[C@@H](Cc3cccnc3)C(=O)N(C)CC(N)=O)CCOCC2)NC1=O` (stereo partly drawn) [compound 45, HOC18gEPEG2PEG2CO-r-Pen(3)-N-T-7MeW-K(Ac)-Pen(3)-AEF-2Nal-THP-K(d)-N-3Pya-Sar-CONH2] ({C18 diacid-γGlu-AEEA-AEEA}-[dR][Pen]NT[Trp(7-Me)]K(Ac)[Pen][AEF][2Nal][Thp]K([Suc-X2])-X11; disulfide 2-7), for which the results for the IC50 (in assay [1]; against IL-23R) were less than 0.5 nM and 50 to 500 nM, respectively.
For `CC(=O)NCCCC[C@@H]1NC(=O)[C@H](Cc2c[nH]c3c(C)cccc23)NC(=O)[C@H]([C@@H](C)O)NC(=O)[C@H](CC(N)=O)NC(=O)[C@@H](NC(=O)[C@@H](CCCNC(=N)N)NC(=O)COCCOCCNC(=O)COCCOCCNC(=O)CC[C@H](NC(=O)CCCCCCCCCCCCCCCCC(=O)O)C(=O)O)C(C)(C)SSC(C)(C)[C@@H](C(=O)N[C@@H](Cc2ccc(OCCN)cc2)C(=O)N[C@@H](Cc2ccc3ccccc3c2)C(=O)NC2(C(=O)N[C@@H](CCCCN(C)C(=O)CCOCCOCC[N+](C)(C)C)C(=O)N[C@@H](CC(N)=O)C(O)N[C@@H](Cc3cccnc3)C(=O)N(C)CC(N)=O)CCOCC2)NC1=O` (stereo partly drawn) [compound 82, HOC18gEPEG2PEG2CO-r-Pen(3)-N-T-7MeW-K(Ac)-Pen(3)-AEF-2Nal-THP-K(NMecPEG3a)-N-3Pya-Sar-CONH2] ({C18 diacid-γGlu-AEEA-AEEA}-[dR][Pen]NT[Trp(7-Me)]K(Ac)[Pen][AEF][2Nal][Thp][Lys(Me)](Me3N+(CH2)2O(CH2)2O(CH2)2CO)-X11; disulfide 2-7), in that order: less than 0.5 nM and less than 50 nM.
With `CC(=O)NCCCC[C@@H]1NC(=O)[C@H](Cc2c[nH]c3c(C)cccc23)NC(=O)[C@H]([C@@H](C)O)NC(=O)[C@H](CC(N)=O)NC(=O)[C@@H](NC(=O)[C@@H](CCCNC(=N)N)NC(=O)CCC(=O)N[C@H](CC(=O)O)C[N+](C)(C)C)C(C)(C)SSC(C)(C)[C@@H](C(=O)N[C@@H](Cc2ccc(OCCN)cc2)C(=O)N[C@@H](Cc2ccc3ccccc3c2)C(=O)NC2(C(=O)N[C@@H](CCC(=O)O)C(=O)N[C@@H](CC(N)=O)C(=O)N[C@@H](Cc3cccnc3)C(=O)N(C)CC(=O)N[C@@H](CCCCNC(=O)COCCOCCNC(=O)COCCOCCNC(=O)CC[C@H](NC(=O)CCCCCCCCCCCCCCCCC(=O)O)C(=O)O)C(N)=O)CCOCC2)NC1=O` [compound 54, succiniccarn-r-Pen(3)-N-T-7MeW-K(Ac)-Pen(3)-AEF-2Nal-THP-E-N-3Pya-Sar-K(PEG2PEG2gEC18OH)-CONH2] ({X2-Suc}-[dR][Pen]NT[Trp(7-Me)]K(Ac)[Pen][AEF][2Nal][Thp]EN[3Pal][Sar]K([AEEA-AEEA-γGlu-C18 diacid])-NH2; disulfide 2-7), the values for the IC50 (in assay [1]; at IL-23R) were less than 0.5 nM and 50 to 500 nM, respectively.
The corresponding values for `CC(=O)NCCCC[C@@H]1NC(=O)[C@H](Cc2c[nH]c3c(C)cccc23)NC(=O)[C@H]([C@@H](C)O)NC(=O)[C@H](CCCCNC(=O)COCCOCCNC(=O)COCCOCCNC(=O)CC[C@H](NC(=O)CCCCCCCCCCCCCCCCC(=O)O)C(=O)O)NC(=O)[C@@H](NC(=O)[C@@H](CCCNC(=N)N)NC(C)=O)C(C)(C)SSC(C)(C)[C@@H](C(=O)N[C@@H](Cc2ccc(OCCCCC[N+](C)(C)C)cc2)C(=O)N[C@@H](Cc2ccc3ccccc3c2)C(=O)NC2(C(=O)N[C@@H](CCC(=O)O)C(=O)N[C@@H](CC(N)=O)C(=O)N[C@@H](Cc3cccnc3)C(=O)N(C)CC(N)=O)CCOCC2)NC1=O` [compound 75, MeCO-r-Pen(3)-K(PEG2PEG2gEC18OH)-T-7MeW-K(Ac)-Pen(3)-TMAPF-2Nal-THP-E-N-3Pya-Sar-CONH2] (Ac-[dR][Pen]K([AEEA-AEEA-γGlu-C18 diacid])T[Trp(7-Me)]K(Ac)[Pen]Y(X1)[2Nal][Thp]EN[3Pal][Sar]-NH2; disulfide 2-7) are less than 0.5 nM and less than 50 nM.
The corresponding values for `C=CCOC(=O)CN1CCOc2ccc(cc2)C[C@H](NC(=O)[C@H]2NC(=O)[C@H](CCCCNC(C)=O)NC(=O)[C@H](Cc3c[nH]c4c(C)cccc34)NC(=O)[C@H]([C@@H](C)O)NC(=O)[C@H](CCCCNC(=O)COCCOCCNC(=O)COCCOCCNC(=O)CC[C@H](NC(=O)CCCCCCCCCCCCCCCCCC(=O)O)C(=O)O)NC(=O)[C@@H](NC(=O)CCOCCOCCNC(=O)COCCOCCNC(=O)COCCOCCNC(=O)CC[C@H](NC(=O)CCCCCCCCCCCCCCCCC(=O)O)C(=O)O)C(C)(C)SSC2(C)C)C(=O)N[C@@H](Cc2ccc3ccccc3c2)C(=O)NC2(CCOCC2)C(=O)N[C@@H]1C(=O)N[C@@H](CC(N)=O)C(=O)N[C@@H](Cc1cccnc1)C(=O)N(C)CC(N)=O` [compound 24, AEEP(PEG2PEG2gEC18OH)-Pen(3)-K(PEG2PEG2gEC18OH)-T-7MeW-K(Ac)-Pen(3)-AEF-2Nal-THP-E(OAll)-N-3Pya-Sar-CONH2] are 0.5 to 5 nM and 50 to 500 nM.
On to `CC(=O)N(C)CCCC[C@@H]1NC(=O)[C@H](Cc2c[nH]c3c(C)cccc23)NC(=O)[C@H]([C@@H](C)O)NC(=O)[C@H](CCCCNC(=O)CCOCCOCCOCCOCCOCCOCCOCCOCCOCCOCCOCCOCCNC(=O)CC[C@H](CC(=O)CCCCCCCCCCCCCCCCC(=O)O)C(=O)O)NC(=O)[C@@H](NC(=O)CCOCCOCC[N+](C)(C)C)C(C)(C)SSC(C)(C)[C@@H](C(=O)N[C@@H](Cc2ccc(OCCCCC[N+](C)(C)C)cc2)C(=O)N[C@@H](Cc2ccc3ccccc3c2)C(=O)NC2(C(=O)N[C@@H](CCCCN(C)C(C)=O)C(=O)N[C@@H](CC(N)=O)C(=O)N[C@@H](Cc3cccnc3)C(=O)N(C)CC(=O)N(C)C)CCOCC2)NC1=O` [compound 125, cPEG3aCO-Pen(3)-K(PEG12gEC18OH)-T-7MeW-K(NMeAc)-Pen(3)-TMAPF-2Nal-THP-K(NMeAc)-N-3Pya-Sar-CON(Me)2] ({Me3N+(CH2)2O(CH2)2O(CH2)2CO}-[Pen]K([PEG12-X12])T[Trp(7-Me)][Lys(Me)](Ac)[Pen]Y(X1)[2Nal][Thp][Lys(Me)](Ac)N[3Pal][Sar]-NMe2; disulfide 1-6), for which the IC50 in assay [1] is 0.5 to 5 nM; against IL-23R, less than 50 nM.
